Values of other authors, collected in patent US20020156056A1, “Oral fast-dissolving compositions for dopamine agonists” (priority 1997, published 2002).

Key:
[1] = in vivo

Share of the drug converted to dopamine in peripheral tissues [1]	Share of the drug that enters the brain [1]	Structure (SMILES)	Adverse effects of intranasal administration (intranasal)	Adverse findings in long-term studies of oral tablets (oral tablets, studies stopped after 7-10 days)	Adverse effects of sub-lingual tablets (sub-lingual tablets, prolonged use)
–	–	CN1CCc2cccc3c2C1Cc1ccc(O)c(O)c1-3 (centres unmarked) [apomorphine, 5,6,6a,7-tetrahydro-6-methyl-4H-dibenzo[de,g]quinoline-10,11-diol]	transient nasal blockage, burning sensation and swollen nose and lips	unexplained rises in blood urea nitrogen	severe stomatitis on prolonged use with buccal mucosal ulceration in half the patients treated
about 95%	less than 1%	N[C@@H](Cc1ccc(O)c(O)c1)C(=O)O [levodopa]	–	–	–
